Experimental data as given in the NIST ThermoML archive (doi:10.1016/j.jct.2014.05.016).

Assay: xn = mol fraction of the nth substance listed
Conditions: 100 kPa, Liquid; for viscosity: Concentric cylinders viscometry; for mass density: Vibrating tube method

C[n+]1ccn(CCO)c1.F[B-](F)(F)F [1-(2-hydroxyethyl)-3-methylimidazolium tetrafluoroborate] + CCCC[n+]1ccccc1.F[B-](F)(F)F
Conditions	mass density [kg/m3]	viscosity [mPa·s]
293.15 K, x1 = 0.1003	1229	218.7
293.15 K, x1 = 0.2001	–	205.9
293.15 K, x1 = 0.2004	1242.4	–
293.15 K, x1 = 0.2997	–	193.9
293.15 K, x1 = 0.3003	1255.9	–
293.15 K, x1 = 0.3999	1269.7	184.2
293.15 K, x1 = 0.4996	–	176.1
293.15 K, x1 = 0.5007	1284.2	–
293.15 K, x1 = 0.5991	1298.7	169.5
293.15 K, x1 = 0.6954	1313.4	–
293.15 K, x1 = 0.6997	–	164.2
293.15 K, x1 = 0.7997	1329.9	–
293.15 K, x1 = 0.7999	–	159.9
293.15 K, x1 = 0.8996	1346.1	–
293.15 K, x1 = 0.8998	–	155.4
293.15 K, x1 = 1	1362.4	153.6
298.15 K, x1 = 0.1003	1225.5	160.4
298.15 K, x1 = 0.2001	–	151.5
298.15 K, x1 = 0.2004	1238.9	–
298.15 K, x1 = 0.2997	–	143.4
298.15 K, x1 = 0.3003	1252.3	–
298.15 K, x1 = 0.3999	1266.1	136.7
298.15 K, x1 = 0.4996	–	131.1
298.15 K, x1 = 0.5007	1280.6	–
298.15 K, x1 = 0.5991	1295.1	126.4
298.15 K, x1 = 0.6954	1309.8	–
298.15 K, x1 = 0.6997	–	122.7
298.15 K, x1 = 0.7997	1326.1	–
298.15 K, x1 = 0.7999	–	119.5
298.15 K, x1 = 0.8996	1342.3	–
298.15 K, x1 = 0.8998	–	116
298.15 K, x1 = 1	1358.7	115.1
303.15 K, x1 = 0.1003	1222	120.3
303.15 K, x1 = 0.2001	–	114.2
303.15 K, x1 = 0.2004	1235.4	–
303.15 K, x1 = 0.2997	–	108.5
303.15 K, x1 = 0.3003	1248.8	–
303.15 K, x1 = 0.3999	1262.5	104
303.15 K, x1 = 0.4996	–	99.88
303.15 K, x1 = 0.5007	1277	–
303.15 K, x1 = 0.5991	1291.4	96.68
303.15 K, x1 = 0.6954	1306.1	–
303.15 K, x1 = 0.6997	–	94.02
303.15 K, x1 = 0.7997	1322.4	–
303.15 K, x1 = 0.7999	–	91.38
303.15 K, x1 = 0.8996	1338.6	–
303.15 K, x1 = 0.8998	–	88.75
303.15 K, x1 = 1	1354.8	87.98
308.15 K, x1 = 0.1003	1218.7	92.07
308.15 K, x1 = 0.2001	–	87.89
308.15 K, x1 = 0.2004	1231.9	–
308.15 K, x1 = 0.2997	–	83.89
308.15 K, x1 = 0.3003	1245.3	–
308.15 K, x1 = 0.3999	1259	80.56
308.15 K, x1 = 0.4996	–	77.78
308.15 K, x1 = 0.5007	1273.4	–
308.15 K, x1 = 0.5991	1287.9	75.21
308.15 K, x1 = 0.6954	1302.4	–
308.15 K, x1 = 0.6997	–	73.36
308.15 K, x1 = 0.7997	1318.8	–
308.15 K, x1 = 0.7999	–	71.46
308.15 K, x1 = 0.8996	1334.9	–
308.15 K, x1 = 0.8998	–	69.32
308.15 K, x1 = 1	1351.2	68.59
313.15 K, x1 = 0.1003	1215.2	71.96
313.15 K, x1 = 0.2001	–	69.99
313.15 K, x1 = 0.2004	1228.4	–
313.15 K, x1 = 0.2997	–	66.1
313.15 K, x1 = 0.3003	1241.8	–
313.15 K, x1 = 0.3999	1255.5	63.68
313.15 K, x1 = 0.4996	–	61.56
313.15 K, x1 = 0.5007	1269.9	–
313.15 K, x1 = 0.5991	1284.4	59.69
313.15 K, x1 = 0.6954	1298.8	–
313.15 K, x1 = 0.6997	–	58.34
313.15 K, x1 = 0.7997	1315.1	–
313.15 K, x1 = 0.7999	–	56.8
313.15 K, x1 = 0.8996	1331.2	–
313.15 K, x1 = 0.8998	–	55.18
313.15 K, x1 = 1	1347.4	54.81
318.15 K, x1 = 0.1003	–	57.27
318.15 K, x1 = 0.2001	–	55.12
318.15 K, x1 = 0.2997	–	52.99
318.15 K, x1 = 0.3999	–	51.21
318.15 K, x1 = 0.4996	–	49.63
318.15 K, x1 = 0.5991	–	48.25
318.15 K, x1 = 0.6997	–	47.11
318.15 K, x1 = 0.7999	–	45.99
318.15 K, x1 = 0.8998	–	44.69
318.15 K, x1 = 1	–	44.44
